Consider five molecules from article PMC3735429, “Plasmodium falciparum encodes a conserved active inhibitor-2 for Protein Phosphatase type 1: perspectives for novel anti-plasmodial therapy” (BMC Biology, 2013).

For one data set, the system named is Plasmodium falciparum. The settings on record: ref [1]-[3]; cited from earlier work. An excerpt: During its life cycle, Plasmodium falciparum, the deadliest malaria parasite for humans, undergoes several successive rounds of mitosis to amplify parasite populations and consequently to increase the rate of its transmission. Among the essential actors in the growth and division of the parasite are kinases and phosphatases. […] Subsequently, the identification of kinases and phosphatases and their central functions in P. falciparum[4-9] ...

The subject of the next data set is 3D7 P. falciparum strain. As to the kind of experiment: Growth inhibition assay of P. falciparum 3D7 (SYBR Green I, flow cytometry). It counts as cell-based, Plasmodium falciparum. The procedure: (§1) Assays were carried out in 96-well plates with a starting parasitemia of 0.5% at a haematocrit of 1% using SYBR Green I [81]. The peptides were added to the culture at different concentrations ranging from 80 μM to 1.25 μM (final concentrations) in a volume of 250 μl of RPMI-AlbuMAX (0.5%) and incubated for further 72 hr to allow all stages to complete at least one cycle. Cultures were stained for 30 minutes in the dark with SYBR Green I 1X (Invitrogen) diluted in 20 mM Tris pH8.8, 138 mM NaCl, and fixed with 1% paraformaldehyde. Fixed pRBC were stored at 4°C in the dark until flow cytometry analysis.
(§2) Parasite growth was assessed by flow cytometry on a FACSCalibur (Becton-Dickinson). Infected and uninfected erythrocytes were gated on the basis of their forward scatter (FSC) and side scatter (SSC) signals. Fluorescence analysis (Green fluorescence, FL-1 filter) was performed with CellQuest software (FACScan; BD Biosciences) on a total of 100,000 acquired events. Fluorescence was observed as described by Izumiyama et al.[82] on a two-parameters dot plot (FL1-SSC). Fluorescence of non-infected RBC was adjusted to plot between 10^0 and 10^1. Results are expressed in percentage of fluorescence among total RBC.
The drug concentration resulting in 50% inhibition of parasite growth (IC50) was assessed by determining the drug concentration corresponding to 50% of the parasitaemia observed in the peptide-free control wells. The IC50 value was calculated using the ICEstimator software based on a non-linear regression analysis of log-based dose–response curves. Results are presented as means ± sem.
(A flow cytometer gives signals particle by particle.)

In a further data set the test system is HB3 P. falciparum strain. As to the kind of experiment: Growth inhibition assay of P. falciparum HB3 (SYBR Green I, flow cytometry). Type of data set: cell-based, Plasmodium falciparum. The procedure: as §1
as §2, with “RBC. […]” for “RBC.”

Data set [1] concerns the target His6-PfPP1 (Plasmodium falciparum).
For data set [2], the system named is PfPP1. Briefly: PfPP1 phosphatase activity assay with pNPP substrate. Type of data set: biochemical, Plasmodium falciparum. The note with it: recombinant PfPP1 pre-incubated 30 min at 37°C with different concentrations of protein before pNPP; maximal effect; means of four independent experiments in duplicate. As for the experimental part:
The activity of PfPP1 with p-nitro-phenylphosphate (pNPP) was assayed as previously described. To investigate the role of PfI2 recombinant proteins or PfI2/PfI3 derived peptides on His6-PfPP1 activity, different amounts of proteins were added to 1 μg of PfPP1 recombinant protein and preincubated for 30 min at 37°C before testing the PfPP1 phosphatase activity. Okadaic acid was used as control (data not show). Results are presented as mean of increase or decrease of phosphatase activity in comparison to His6-PfPP1 incubated in the reaction buffer.

Data set [3] relates to PfPP1. As to the kind of experiment: Yeast two-hybrid PfI2-PfPP1 interaction. Type of data set: binding, Plasmodium falciparum. The note with it: SD medium lacking leucine, tryptophan, histidine and adenine; 4 days. An excerpt: The full length PfPP1 was cloned into the pGBKT7 vector containing the DNA binding domain of gal4 (Gal4-BD) and wild-type, deleted or mutated PfI2 (PfI2WT, PfI2(1–94), PfI2(19–144), PfI2W16A, PfI2Y103A) into pGADT7 containing the gal4 activation domain (Gal4-AD). The pGBKT7-Gal4-BD-PfPP1 construct was used to transform Y187 strain and maintained on SD media without tryptophan (SD-W). The pGADT7-Gal4-AD-PfI2 constructs were used to transform AH 109 strain and maintained on SD media lacking leucine (SD-L). Mating these two haploid strains results in the formation of diploid strain, which is viable on SD media lacking leucine and tryptophan (SD-LW). Interaction of PfPP1 with the different versions of PfI2 proteins were evaluated by their capacity to grow on selective media: SD medium lacking leucine, tryptophan and histidine (SD-LWH) and SD medium lacking leucine, tryptophan, histidine and adenine (SD-LWHA) for 4 days. Yeasts transformed with empty vector or with pGBKT7 laminine were used as controls.

The subject of a further data set is Xenopus oocytes. Briefly: Induction of germinal vesicle breakdown (GVBD, G2/M transition) in microinjected Xenopus oocytes. Type of data set: cell-based. The note with it: 100 ng injected; monitored 15 h; sets of 20 oocytes, repeated at least three times. The procedure: Preparation of Xenopus oocytes and microinjection experiments were performed as previously described. Briefly, in each assay, 20 oocytes removed from at least two or three different animals were microinjected with His6-PfI2 (wild type, deleted or mutated) recombinant proteins or PfI2/PfI3 derived peptides. […] Okadaic acid was used as a positive control for ability of oocytes to respond to PP inhibition (data not shown). Regarding the pre-injection experiments, deleted, mutated His6-PfI2 proteins or PfI2/PfI3 derived peptides were pre-injected (100 ng) in the oocytes 1 hour before the His6-PfI2WT injection (100 ng). GVBD was detected by the appearance of a white spot at the apex of the animal pole after 15 hours. Oocyte extracts were prepared as follow: oocytes were lysed in buffer (50 mM HEPES pH 7.4, 500 mM NaCl, 0.05% SDS, 0.5% Triton X100, 5 mM MgCl2, 1 mg/ml bovine serum albumin, 10 μg/ ml leupeptin, 10 μg/ml aprotinin, 10 μg/ml soybean trypsin inhibitor, 10 μg/ml benzamidine, 1 mM PMSF, 1 mM sodium vanadate) and centrifuged at 4°C for 15 min at 10,000 g. To detect His6-PfI2 proteins in injected extracts, electrophoresis followed by western-blot analysis performed on oocytes extracts. The membranes were developed with anti-His mAb antibody (Qiagen).

Where two headings read alike, the source gives them in different places. No end group written: not given here.

Regarding `C=C1[C@@H](O)[C@@H]2O[C@]3(CC[C@H](/C=C/[C@@H](C)[C@@H]4CC(C)=C[C@@]5(O[C@H](C[C@@](C)(O)C(=O)O)CC[C@H]5O)O4)O3)CC[C@H]2O[C@@H]1[C@@H](O)C[C@H](C)[C@H]1O[C@@]2(CCCCO2)CC[C@H]1C` [okadaic acid], in the data set on Plasmodium falciparum, the “inhibition of parasite growth in vitro” value was “drastically inhibited parasite growth in vitro”.
The term IC50 denotes the concentration at which inhibition is half-maximal. For VKKKKIKREIKIKKTISWKKTISW [P1], the half-maximal inhibitory concentration (IC50) in the data set on 3D7 P. falciparum strain (3D7 strain, 72 h) amounted to 23.8 µM; in the data set on HB3 P. falciparum strain (HB3 strain, 72 h), 15 µM.
As for VKKKKIKREIKIKVVRWKVVRW [P5], the IC50 with 3D7 P. falciparum strain (72 hr, 7 independent experiments, 3 batches of peptide, means ± sem, read-out: 3D7 IC50) amounted to 9.72 µM; in the data set with HB3 P. falciparum strain (72 hr, 2 different batches, means ± sem, read-out: HB3 IC50), 8.79 µM. Moreover, the parasite growth inhibition entry in the data set with 3D7 P. falciparum strain (at 80 μM, 72 hr, blood stage 3D7, means of seven independent experiments in duplicate) is “up to 90%”.

B1: His6-PfI2WT (natural protein)
chain: MKKKVDKSVTKKTISWDEVTINEQDKERGSRMKILEPNTPFNFILMDSASEDEASKYGDVKGSDEGQNNIADDLINKLNQLVEKQENKGVSNIDFKEKRKKHYNEYKMLQKLRKSGTLDDIDEEYKPDNKDSNCDNSNMNESEE
Regarding B1, the phosphatase activity of recombinant PfPP1 on pNPP after pre-incubation for 30 min at 37°C with different concentrations of PfI2WT; inhibition in data set [1] came out at 80%.

B2: PfI2WT: wild-type recombinant His-tagged P. falciparum inhibitor-2, 144 amino acids (protein)
chain: MKKKVDKSVTKKTISWDEVTINEQDKERGSRMKILEPNTPFNFILMDSASEDEASKYGDVKGSDEGQNNIADDLINKLNQLVEKQENKGVSNIDFKEKRKKHYNEYKMLQKLRKSGTLDDIDEEYKPDNKDSNCDNSNMNESEE
modifications: left off: His6, end not stated, kept
On to B2, for which, in the data set on PfPP1 [2], the “decrease in PfPP1 phosphatase activity” value is given as “up to 80%”. In addition, in the data set with PfPP1 [3], the “growth of diploid yeast with PfPP1 on SD-LWHA (stringent conditions)” value is given as “still able to grow”. For the same molecule, in the data set on Xenopus oocytes, the GVBD induced was ~ 85%.
